Measurements: patent publication US8952024B2, “Herbicidal pyrimidone derivatives” (E I du Pont de Nemours and Company, priority 2009, dated 2015)

Key:
Assay type in all cases: in vivo
wild oat (Avena fatua) = test: Test B pre-/postemergence plant response
Procedure, shortened: (§1)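 Visual ratings on a 0–100 scale (100 = complete control) were made versus untreated controls 13–15 days after treatment in a greenhouse. Compounds in surfactant-containing non-phytotoxic solvent were applied preemergence to seeds in loam–sand blend or postemergence to 1- to 4-leaf plants (2–18 cm).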

[1] = tested on: Italian ryegrass (Lolium multiflorum); test: Test B pre-/postemergence plant response
Procedure, shortened: as §1

[2] = tested on: johnsongrass (Sorghum halepense); test: Test B pre-/postemergence plant response
Procedure, shortened: as §1

soybean (Glycine max) = test: Test B pre-/postemergence plant response
Procedure, shortened: as §1

[3] = tested on: Surinam grass (Brachiaria decumbens); test: Test B pre-/postemergence plant response
Procedure, shortened: as §1

[4] = tested on: bermudagrass (Cynodon dactylon); test: Test B pre-/postemergence plant response
Procedure, shortened: as §1

[5] = tested on: woolly cupgrass (Eriochloa villosa); test: Test B pre-/postemergence plant response
Procedure, shortened: as §1

[6] = tested on: yellow nutsedge (Cyperus esculentus); test: Test B pre-/postemergence plant response
Procedure, shortened: as §1

[7] = tested on: velvetleaf (Abutilon theophrasti); test: Test B pre-/postemergence plant response
Procedure, shortened: as §1

[8] = tested on: large crabgrass (Digitaria sanguinalis); test: Test B pre-/postemergence plant response
Procedure, shortened: as §1

[9] = tested on: blackgrass (Alopecurus myosuroides); test: Test B pre-/postemergence plant response
Procedure, shortened: as §1

[10] = tested on: ragweed (common ragweed, Ambrosia elatior); test: Test B pre-/postemergence plant response
Procedure, shortened: as §1

[11] = tested on: lambsquarters (Chenopodium album); test: Test B pre-/postemergence plant response
Procedure, shortened: as §1

corn (Zea mays) = test: Test B pre-/postemergence plant response
Procedure, shortened: as §1

[12] = tested on: canarygrass (Phalaris minor); test: Test B postemergence plant response; conditions: Postemergence
Procedure, shortened: (§2)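 Plants grown in peat/vermiculite medium were sprayed postemergence at 2–18 cm height (1- to 4-leaf stage). After 13–15 days in the greenhouse, response was rated visually against untreated controls on a 0–100 scale (0 no effect, 100 complete control).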

[13] = tested on: winter barley (Hordeum vulgare); test: Test B postemergence plant response; conditions: Postemergence
Procedure, shortened: as §2

[14] = tested on: windgrass (Apera spica-venti); test: Test B postemergence plant response; conditions: Postemergence
Procedure, shortened: as §2

[15] = tested on: chickweed (Stellaria media); test: Test B postemergence plant response; conditions: Postemergence
Procedure, shortened: as §2

[16] = Postemergence, 31 g ai/ha, 0 to 100 scale (0 no effect, 100 complete control)
[17] = Postemergence, 250 g ai/ha, scale 0 to 100 (0 no effect, 100 complete control), 13 to 15 days
[18] = Postemergence, 62 g ai/ha, scale 0 to 100 (0 no effect, 100 complete control)
[19] = Preemergence, 31 g ai/ha, scale 0 to 100 (0 no effect, 100 complete control)
[20] = Preemergence, 62 g ai/ha, scale 0 to 100, 0 no effect, 100 complete control
[21] = Preemergence, 125 g ai/ha, scale 0 to 100, 0 no effect, 100 complete control
[22] = Preemergence, 250 g ai/ha, 0 to 100 scale
[23] = Postemergence, 125 g ai/ha, scale 0 to 100 (0 no effect, 100 complete control)
[24] = 31 g ai/ha, 0 to 100 scale (0 no effect, 100 complete control)
[25] = 125 g ai/ha, scale 0 to 100 (0 no effect, 100 complete control)
[26] = 250 g ai/ha, scale 0 to 100 (0 no effect, 100 complete control), 13 to 15 days
[27] = 62 g ai/ha, scale 0 to 100 (0 no effect, 100 complete control)

`CCCc1ncc(C(=O)C2=C(O)CCCC2=O)c(=O)n1-c1ccccc1` [Compound 217] was tested, and the “Plant response rating, Oat, Wild” value (wild oat (Avena fatua); [16]) was 30, the “Plant response rating, Oat, Wild” value (wild oat (Avena fatua); [17]) was 85 and the “Plant response rating, Oat, Wild” value (wild oat (Avena fatua); [18]) was 40. For the same compound, the “Plant response rating, Oat, Wild” value (wild oat (Avena fatua); [19]) was 0, the “Plant response rating, Oat, Wild” value (wild oat (Avena fatua); [20]) was 0 and the “Plant response rating, Oat, Wild” value (wild oat (Avena fatua); [21]) was 0. For the same compound, the “Oat, Wild plant response rating” value (wild oat (Avena fatua); [22]) was 0, the “Plant response rating, Ryegrass, Italian” value [1, 16] was 0 and the “Plant response rating, Ryegrass, Italian” value [1, 17] was 40. For the same compound, the “Plant response rating, Ryegrass, Italian” value [1, 18] was 30, the “Plant response rating, Ryegrass, Italian” value [1, 19] was 0 and the “Plant response rating, Ryegrass, Italian” value [1, 20] was 0. The “Plant response rating, Ryegrass, Italian” value [1, 21] was 5, the “Ryegrass, Italian plant response rating” value [1, 22] was 10 and the “Plant response rating, Johnsongrass” value [2, 16] was 0. The “Plant response rating, Johnsongrass” value [2, 23] was 60, the “Plant response rating, Johnsongrass” value [2, 17] was 65 and the “Plant response rating, Johnsongrass” value [2, 18] was 60. The “Plant response rating, Johnsongrass” value [2, 19] was 0, the “Plant response rating, Johnsongrass” value [2, 20] was 5 and the “Plant response rating, Johnsongrass” value [2, 21] was 20. The “Johnsongrass plant response rating” value [2, 22] was 55, the “Plant response rating, Soybean” value (soybean (Glycine max); [16]) was 75 and the “Plant response rating, Soybean” value (soybean (Glycine max); [17]) was 98. For the same compound, the “Plant response rating, Soybean” value (soybean (Glycine max); [18]) was 85, the “Plant response rating, Soybean” value (soybean (Glycine max); [19]) was 0 and the “Plant response rating, Soybean” value (soybean (Glycine max); [20]) was 0. For the same compound, the “Plant response rating, Soybean” value (soybean (Glycine max); [21]) was 0, the “Soybean plant response rating” value (soybean (Glycine max); [22]) was 0 and the “Plant response rating, Surinam Grass” value [3, 16] was 70. For the same compound, the “Plant response rating, Surinam Grass” value [3, 17] was 95, the “Plant response rating, Surinam Grass” value [3, 18] was 80 and the “Plant response rating, Surinam Grass” value [3, 19] was 45. For the same compound, the “Plant response rating, Surinam Grass” value [3, 20] was 75, the “Plant response rating, Surinam Grass” value [3, 21] was 85 and the “Surinam Grass plant response rating” value [3, 22] was 90. The “Plant response rating, Bermudagrass” value [4, 16] was 70, the “Plant response rating, Bermudagrass” value [4, 23] was 98 and the “Plant response rating, Bermudagrass” value [4, 17] was 100. The “Plant response rating, Bermudagrass” value [4, 18] was 85, the “Plant response rating, Bermudagrass” value [4, 19] was 98 and the “Plant response rating, Bermudagrass” value [4, 20] was 100. The “Plant response rating, Bermudagrass” value [4, 21] was 100, the “Bermudagrass plant response rating” value ([4]; Preemergence, 250 g ai/ha, 0 to 100 scale, 0 no effect, 100 complete control) was 100 and the “Plant response rating, Cupgrass, Woolly” value [5, 16] was 25. For the same compound, the “Plant response rating, Cupgrass, Woolly” value [5, 23] was 45, the “Plant response rating, Cupgrass, Woolly” value [5, 17] was 55 and the “Plant response rating, Cupgrass, Woolly” value [5, 18] was 45. For the same compound, the “Plant response rating, Cupgrass, Woolly” value [5, 19] was 0, the “Plant response rating, Cupgrass, Woolly” value [5, 20] was 5 and the “Plant response rating, Cupgrass, Woolly” value [5, 21] was 65. For the same compound, the “Cupgrass, Woolly plant response rating” value [5, 22] was 80, the “Plant response rating, Nutsedge, Yellow” value [6, 16] was 10 and the “Plant response rating, Nutsedge, Yellow” value [6, 23] was 70. For the same compound, the “Plant response rating, Nutsedge, Yellow” value [6, 17] was 70, the “Plant response rating, Nutsedge, Yellow” value [6, 18] was 60 and the “Plant response rating, Nutsedge, Yellow” value [6, 19] was 60. For the same compound, the “Plant response rating, Nutsedge, Yellow” value [6, 20] was 65, the “Plant response rating, Nutsedge, Yellow” value [6, 21] was 70 and the “Nutsedge, Yellow plant response rating” value [6, 22] was 90. For the same compound, the “Plant response rating, Velvetleaf” value [7, 16] was 98, the “Plant response rating, Velvetleaf” value [7, 17] was 100 and the “Plant response rating, Velvetleaf” value [7, 18] was 98. For the same compound, the “Plant response rating, Velvetleaf” value [7, 19] was 95, the “Plant response rating, Velvetleaf” value [7, 20] was 100 and the “Plant response rating, Velvetleaf” value [7, 21] was 100. The “Velvetleaf plant response rating” value [7, 22] was 100, the “Plant response rating, Crabgrass, Large” value [8, 16] was 80 and the “Plant response rating, Crabgrass, Large” value [8, 23] was 90. The “Plant response rating, Crabgrass, Large” value [8, 17] was 98, the “Plant response rating, Crabgrass, Large” value [8, 18] was 85 and the “Plant response rating, Crabgrass, Large” value [8, 19] was 95. For the same compound, the “Plant response rating, Crabgrass, Large” value [8, 20] was 100, the “Plant response rating, Crabgrass, Large” value [8, 21] was 100 and the “Crabgrass, Large plant response rating” value [8, 22] was 100. For the same compound, the “Plant response rating, Blackgrass” value [9, 16] was 0, the “Plant response rating, Blackgrass” value [9, 23] was 30 and the “Plant response rating, Blackgrass” value [9, 17] was 30. The “Plant response rating, Blackgrass” value [9, 18] was 5, the “Plant response rating, Blackgrass” value [9, 19] was 0 and the “Plant response rating, Blackgrass” value [9, 20] was 0. The “Plant response rating, Blackgrass” value [9, 21] was 0, the “Blackgrass plant response rating” value [9, 22] was 0 and the “Plant response rating, Ragweed” value [10, 16] was 80. The “Plant response rating, Ragweed” value [10, 17] was 98, the “Plant response rating, Ragweed” value [10, 18] was 80 and the “Plant response rating, Ragweed” value [10, 19] was 60. For the same compound, the “Plant response rating, Ragweed” value [10, 20] was 60, the “Plant response rating, Ragweed” value [10, 21] was 90 and the “Ragweed plant response rating” value [10, 22] was 95. For the same compound, the “Plant response rating, Lambsquarters” value [11, 16] was 90, the “Plant response rating, Lambsquarters” value [11, 23] was 100 and the “Plant response rating, Lambsquarters” value [11, 17] was 100. For the same compound, the “Plant response rating, Lambsquarters” value [11, 18] was 100, the “Plant response rating, Lambsquarters” value [11, 19] was 95 and the “Plant response rating, Lambsquarters” value [11, 20] was 100. The “Plant response rating, Lambsquarters” value [11, 21] was 100, the “Lambsquarters plant response rating” value [11, 22] was 100 and the “Plant response rating, Corn” value (corn (Zea mays); [16]) was 0. For the same compound, the “Plant response rating, Corn” value (corn (Zea mays); [23]) was 25, the “Plant response rating, Corn” value (corn (Zea mays); [17]) was 35 and the “Plant response rating, Corn” value (corn (Zea mays); [18]) was 10. The “Plant response rating, Corn” value (corn (Zea mays); [19]) was 0, the “Plant response rating, Corn” value (corn (Zea mays); [20]) was 0 and the “Plant response rating, Corn” value (corn (Zea mays); [21]) was 0. The “Corn plant response rating” value (corn (Zea mays); [22]) was 0, the “Plant response rating, Canarygrass” value [12, 24] was 0 and the “Plant response rating, Canarygrass” value [12, 25] was 20. For the same compound, the “Plant response rating, Canarygrass” value [12, 26] was 20, the “Plant response rating, Canarygrass” value [12, 27] was 20 and the “Plant response rating, Barley” value [13, 24] was 0. The “Plant response rating, Barley” value [13, 25] was 10, the “Plant response rating, Barley” value [13, 26] was 10 and the “Plant response rating, Barley” value [13, 27] was 5. The “Plant response rating, Windgrass” value [14, 24] was 50, the “Plant response rating, Windgrass” value [14, 26] was 85 and the “Plant response rating, Windgrass” value [14, 27] was 50. The “Plant response rating, Chickweed” value [15, 24] was 75, the “Plant response rating, Chickweed” value [15, 25] was 100 and the “Plant response rating, Chickweed” value [15, 26] was 100. The “Plant response rating, Chickweed” value [15, 27] was 95.
